Experimental data as given in US12703729B2, “GIP agonist compounds and methods” (Zealand Pharma A/S, priority 2014, dated 2026).
Starred links: 1 amine or outer side, 2 acyl side, 3 side chain; linkers in the order of their positions; H or OH if unused. Non-standard residues stand in square brackets, D forms with d. Residues, ends and D or L forms follow the SMILES beside them. Groups on a side chain read outwards from the residue. *: point of attachment. γGlu = O=C(O)[C@H](CCC(=O)[*:2])N[*:1]; Palmitoyl = CCCCCCCCCCCCCCCC(=O)*; Aib = CC(C)(N)C(=O)O

Columns and labels:
[1] = target: T1, human GIP R (Homo sapiens, UniProt P48546); assay: cell-based
T1 sequence (P48546 22-466): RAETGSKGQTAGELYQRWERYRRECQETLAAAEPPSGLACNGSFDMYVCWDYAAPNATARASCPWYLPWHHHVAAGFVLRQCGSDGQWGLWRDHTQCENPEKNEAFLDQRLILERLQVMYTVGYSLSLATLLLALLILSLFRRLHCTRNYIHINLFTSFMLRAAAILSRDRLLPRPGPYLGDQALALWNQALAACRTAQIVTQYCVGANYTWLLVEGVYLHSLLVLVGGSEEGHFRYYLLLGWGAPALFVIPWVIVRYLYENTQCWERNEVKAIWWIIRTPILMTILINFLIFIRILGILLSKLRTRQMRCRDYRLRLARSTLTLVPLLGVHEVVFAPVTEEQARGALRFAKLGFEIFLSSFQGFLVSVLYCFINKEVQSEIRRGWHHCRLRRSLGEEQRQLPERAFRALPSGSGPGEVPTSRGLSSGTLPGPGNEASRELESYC

[2] = target: T2, human GIP receptor (GIP R) (Homo sapiens, UniProt P48546); assay: Activity assay at human GIP receptor, cAMP induction (AlphaScreen), Example 3
T2 sequence (P48546 22-466): T1 sequence (P48546 22-466)

| Compound | EC50 [1] [nM] | EC50 [2] [nM] |
| --- | --- | --- |
| CCCCCCCCCCCCCCCC(=O)N[C@@H](CCC(=O)NCCCC[C@H](NC(=O)[C@H](CCCCN)NC(=O)[C@H](CC(=O)O)NC(=O)[C@H](CC(C)C)NC(=O)[C@H](CCC(=O)O)NC(=O)[C@@H](NC(=O)[C@H](CO)NC(=O)[C@H](Cc1ccc(O)cc1)NC(=O)[C@H](CC(=O)O)NC(=O)[C@H](CO)NC(=O)[C@@H](NC(=O)[C@H](Cc1ccccc1)NC(=O)[C@@H](NC(=O)CNC(=O)[C@H](CCC(=O)O)NC(=O)C(C)(C)NC(=O)[C@@H](N)Cc1ccc(O)cc1)[C@@H](C)O)[C@@H](C)CC)[C@@H](C)CC)C(=O)N[C@@H](Cc1c[nH]cn1)C(=O)N[C@@H](CCC(N)=O)C(=O)N[C@@H](CCC(N)=O)C(=O)N[C@@H](CC(=O)O)C(=O)N[C@@H](Cc1ccccc1)C(=O)N[C@H](C(=O)N[C@@H](CC(N)=O)C(=O)N[C@@H](Cc1c[nH]c2ccccc12)C(=O)N[C@@H](CC(C)C)C(=O)N[C@@H](CC(C)C)C(=O)N[C@@H](C)C(=O)N[C@@H](CCC(N)=O)C(=O)NCC(=O)N1CCC[C@H]1C(=O)N[C@@H](CO)C(=O)N[C@@H](CO)C(=O)NCC(=O)N[C@@H](C)C(=O)N1CCC[C@H]1C(=O)N1CCC[C@H]1C(=O)N1CCC[C@H]1C(=O)N[C@@H](CO)C(N)=O)C(C)C)C(=O)O [Compound 1] (H-Y[Aib]EGTFISDYSIELDKK([γGlu-Palmitoyl])HQQDFVNWLLAQGPSSGAPPPS-NH2) | 0.008 |  |
| CCCCCCCCCCCCCCCC(=O)N[C@@H](CCC(=O)NCCCC[C@H](NC(=O)[C@H](CC(=O)O)NC(=O)[C@H](CC(C)C)NC(=O)[C@H](CCC(=O)O)NC(=O)[C@@H](NC(=O)[C@H](CO)NC(=O)[C@H](Cc1ccc(O)cc1)NC(=O)[C@H](CC(=O)O)NC(=O)[C@H](CO)NC(=O)[C@@H](NC(=O)[C@H](Cc1ccccc1)NC(=O)[C@@H](NC(=O)CNC(=O)[C@H](CCC(=O)O)NC(=O)C(C)(C)NC(=O)[C@@H](N)Cc1ccc(O)cc1)[C@@H](C)O)[C@@H](C)CC)[C@@H](C)CC)C(=O)N[C@H](C(=O)N[C@@H](Cc1c[nH]cn1)C(=O)N[C@@H](CCC(N)=O)C(=O)N[C@@H](CCC(N)=O)C(=O)N[C@@H](CC(=O)O)C(=O)N[C@@H](Cc1ccccc1)C(=O)N[C@H](C(=O)N[C@@H](CC(N)=O)C(=O)N[C@@H](Cc1c[nH]c2ccccc12)C(=O)N[C@@H](CC(C)C)C(=O)N[C@@H](CC(C)C)C(=O)N[C@@H](C)C(=O)N[C@@H](CCC(N)=O)C(=O)NCC(=O)N1CCC[C@H]1C(=O)N[C@@H](CO)C(=O)N[C@@H](CO)C(=O)NCC(=O)N[C@@H](C)C(=O)N1CCC[C@H]1C(=O)N1CCC[C@H]1C(=O)N1CCC[C@H]1C(=O)N[C@@H](CO)C(N)=O)C(C)C)[C@@H](C)CC)C(=O)O [Compound 2] (H-Y[Aib]EGTFISDYSIELDK([γGlu-Palmitoyl])IHQQDFVNWLLAQGPSSGAPPPS-NH2) | 0.013 | 0.008 |
| CCCCCCCCCCCCCCCC(=O)N[C@@H](CCC(=O)NCCCC[C@H](NC(=O)CNC(=O)[C@H](CCCCN)NC(=O)[C@H](CCC(N)=O)NC(=O)[C@H](C)NC(=O)[C@H](CC(C)C)NC(=O)[C@H](CC(C)C)NC(=O)[C@H](Cc1c[nH]c2ccccc12)NC(=O)[C@H](CC(N)=O)NC(=O)[C@@H](NC(=O)[C@H](Cc1ccccc1)NC(=O)[C@H](CC(=O)O)NC(=O)[C@H](CCC(N)=O)NC(=O)[C@H](CCC(N)=O)NC(=O)[C@H](Cc1c[nH]cn1)NC(=O)[C@@H](NC(=O)[C@H](CCCCN)NC(=O)[C@H](CC(=O)O)NC(=O)[C@H](CC(C)C)NC(=O)[C@H](CCC(=O)O)NC(=O)[C@@H](NC(=O)[C@H](CO)NC(=O)[C@H](Cc1ccc(O)cc1)NC(=O)[C@H](CC(=O)O)NC(=O)[C@H](CO)NC(=O)[C@@H](NC(=O)[C@H](Cc1ccccc1)NC(=O)[C@@H](NC(=O)CNC(=O)[C@H](CCC(=O)O)NC(=O)C(C)(C)NC(=O)[C@@H](N)Cc1ccc(O)cc1)[C@@H](C)O)[C@@H](C)CC)[C@@H](C)CC)[C@@H](C)CC)C(C)C)C(N)=O)C(=O)O [Compound 7] (H-Y[Aib]EGTFISDYSIELDKIHQQDFVNWLLAQKGK([γGlu-Palmitoyl])-NH2) |  | 0.032 |
| CCCCCCCCCCCCCCCC(=O)N[C@@H](CCC(=O)NCCCC[C@H](NC(=O)[C@H](CCC(N)=O)NC(=O)[C@H](C)NC(=O)[C@H](CC(C)C)NC(=O)[C@H](CC(C)C)NC(=O)[C@H](Cc1c[nH]c2ccccc12)NC(=O)[C@H](CC(N)=O)NC(=O)[C@@H](NC(=O)[C@H](Cc1ccccc1)NC(=O)[C@H](CC(=O)O)NC(=O)[C@H](CCC(N)=O)NC(=O)[C@H](CCC(N)=O)NC(=O)[C@H](Cc1c[nH]cn1)NC(=O)[C@@H](NC(=O)[C@H](CCCCN)NC(=O)[C@H](CC(=O)O)NC(=O)[C@H](CC(C)C)NC(=O)[C@H](CCC(=O)O)NC(=O)[C@@H](NC(=O)[C@H](CO)NC(=O)[C@H](Cc1ccc(O)cc1)NC(=O)[C@H](CC(=O)O)NC(=O)[C@H](CO)NC(=O)[C@@H](NC(=O)[C@H](Cc1ccccc1)NC(=O)[C@@H](NC(=O)CNC(=O)[C@H](CCC(=O)O)NC(=O)C(C)(C)NC(=O)[C@@H](N)Cc1ccc(O)cc1)[C@@H](C)O)[C@@H](C)CC)[C@@H](C)CC)[C@@H](C)CC)C(C)C)C(N)=O)C(=O)O [Compound 6] (H-Y[Aib]EGTFISDYSIELDKIHQQDFVNWLLAQK([γGlu-Palmitoyl])-NH2) | 0.032 | 0.014 |
| CCCCCCCCCCCCCCCC(=O)N[C@@H](CCC(=O)NCCCC[C@H](NC(=O)[C@H](CCCCN)NC(=O)[C@H](CCC(=O)O)NC(=O)[C@H](CC(C)C)NC(=O)[C@H](CCC(=O)O)NC(=O)[C@@H](NC(=O)[C@H](CO)NC(=O)[C@H](Cc1ccc(O)cc1)NC(=O)[C@H](CC(=O)O)NC(=O)[C@H](CO)NC(=O)[C@@H](NC(=O)[C@H](Cc1ccccc1)NC(=O)[C@@H](NC(=O)CNC(=O)[C@H](CCC(=O)O)NC(=O)C(C)(C)NC(=O)[C@@H](N)Cc1ccc(O)cc1)[C@@H](C)O)[C@@H](C)CC)[C@@H](C)CC)C(=O)N[C@@H](Cc1c[nH]cn1)C(=O)N[C@@H](CCC(N)=O)C(=O)N[C@@H](CCC(N)=O)C(=O)N[C@@H](CC(=O)O)C(=O)N[C@@H](Cc1ccccc1)C(=O)N[C@H](C(=O)N[C@@H](CC(N)=O)C(=O)N[C@@H](Cc1c[nH]c2ccccc12)C(=O)N[C@@H](CC(C)C)C(=O)N[C@@H](CC(C)C)C(=O)N[C@@H](C)C(=O)N[C@@H](CCC(N)=O)C(=O)NCC(=O)N1CCC[C@H]1C(=O)N[C@@H](CO)C(=O)N[C@@H](CO)C(=O)NCC(=O)N[C@@H](C)C(=O)N1CCC[C@H]1C(=O)N1CCC[C@H]1C(=O)N1CCC[C@H]1C(=O)N[C@@H](CO)C(N)=O)C(C)C)C(=O)O [Compound 3] (H-Y[Aib]EGTFISDYSIELEKK([γGlu-Palmitoyl])HQQDFVNWLLAQGPSSGAPPPS-NH2) | 0.014 | 0.014 |
